Measurements taken from patent publication US9862708B2, “Pyrazolone compounds and uses thereof” (Tempest Therapeutics, Inc., priority 2014, dated 2018).
Like-named read-outs stand apart in the source and are kept apart here.

Assays:
Format in all cases: cell-based
human PPARα = target: T1, human PPARα (Homo sapiens, UniProt Q07869); test: Human PPARα Reporter Assay (luciferase, Indigo Biosciences)
T1 construct: host or cells: proprietary non-human mammalian cells
T1 sequence (Q07869 1-468): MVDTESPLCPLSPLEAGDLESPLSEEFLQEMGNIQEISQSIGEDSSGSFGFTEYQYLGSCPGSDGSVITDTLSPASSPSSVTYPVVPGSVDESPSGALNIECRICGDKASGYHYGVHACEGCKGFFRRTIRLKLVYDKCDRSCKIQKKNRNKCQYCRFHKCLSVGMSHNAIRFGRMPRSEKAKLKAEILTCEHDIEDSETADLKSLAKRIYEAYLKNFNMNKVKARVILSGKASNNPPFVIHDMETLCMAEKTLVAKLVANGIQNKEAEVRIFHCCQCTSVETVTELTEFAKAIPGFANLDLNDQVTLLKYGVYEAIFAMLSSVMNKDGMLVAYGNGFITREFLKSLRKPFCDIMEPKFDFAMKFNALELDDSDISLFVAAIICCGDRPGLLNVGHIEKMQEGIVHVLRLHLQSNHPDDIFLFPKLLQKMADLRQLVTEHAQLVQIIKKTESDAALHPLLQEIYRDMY
Summary of the method: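 Non-human mammalian cells constitutively expressing human PPARα with a PPARα-responsive luciferase reporter were dosed with compounds right after plating. After overnight incubation, media removed and detection reagent added; luminescence taken as proportional to PPARα activation, agonist or antagonist mode.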

PPAR beta/delta = target: T2, PPAR beta/delta (Homo sapiens, UniProt Q03181); test: PPAR β/δ reporter counterscreen (Indigo Biosciences kit); conditions: receptor agonist at ~EC80 for antagonist potency
T2 construct: host or cells: engineered reporter cells of the kit (analogous to the PPARα kit: non-human mammalian)
T2 sequence (Q03181 1-441): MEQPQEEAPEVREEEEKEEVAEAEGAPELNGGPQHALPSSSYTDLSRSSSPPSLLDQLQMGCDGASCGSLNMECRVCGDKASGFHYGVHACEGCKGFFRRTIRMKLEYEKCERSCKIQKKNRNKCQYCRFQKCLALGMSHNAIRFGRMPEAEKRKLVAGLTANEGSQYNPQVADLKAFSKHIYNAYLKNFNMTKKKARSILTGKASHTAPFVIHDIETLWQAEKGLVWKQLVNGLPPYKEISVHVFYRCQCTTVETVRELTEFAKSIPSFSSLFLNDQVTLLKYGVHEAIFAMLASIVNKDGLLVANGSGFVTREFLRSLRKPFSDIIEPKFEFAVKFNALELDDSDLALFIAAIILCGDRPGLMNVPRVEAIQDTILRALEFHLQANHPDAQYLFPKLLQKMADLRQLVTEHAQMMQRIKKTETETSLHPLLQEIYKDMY
Experimental: (§1) To determine species selectivity, a Mouse PPARα Reporter Assay System was used (Indigo Biosciences, Cat. #M00111). Activity of test compounds to antagonize or agonize other isoforms of human PPAR, for example β/δ and γ, were assessed using the corresponding kits from Indigo Biosciences (Cat. #IB00121 and #IB00101, respectively). In addition to PPAR activity, compounds were also screened for activity against other nuclear hormone receptors including Estrogen Receptor β, Glucocorticoid Receptor and Thyroid Receptor β using commercially available kits (Indigo Biosciences, Cat. #IB00411, IB00201 and IB01101, respectively). Each assay system from Indigo Biosciences uses technology analogous to the human
(§2) PPARα kit, with the variance being that the cells used for each assay were engineered to over-express the receptor of interest. In addition, the appropriate receptor agonist (included with each kit) was used at ˜EC80 for assays in which antagonist potency was being assessed.

PPAR gamma = target: T3, PPAR gamma (Homo sapiens, UniProt P37231); test: PPAR γ reporter counterscreen (Indigo Biosciences kit); conditions: receptor agonist at ~EC80 for antagonist potency
T3 construct: host or cells: engineered reporter cells of the kit (analogous to the PPARα kit: non-human mammalian)
T3 sequence (P37231 1-505): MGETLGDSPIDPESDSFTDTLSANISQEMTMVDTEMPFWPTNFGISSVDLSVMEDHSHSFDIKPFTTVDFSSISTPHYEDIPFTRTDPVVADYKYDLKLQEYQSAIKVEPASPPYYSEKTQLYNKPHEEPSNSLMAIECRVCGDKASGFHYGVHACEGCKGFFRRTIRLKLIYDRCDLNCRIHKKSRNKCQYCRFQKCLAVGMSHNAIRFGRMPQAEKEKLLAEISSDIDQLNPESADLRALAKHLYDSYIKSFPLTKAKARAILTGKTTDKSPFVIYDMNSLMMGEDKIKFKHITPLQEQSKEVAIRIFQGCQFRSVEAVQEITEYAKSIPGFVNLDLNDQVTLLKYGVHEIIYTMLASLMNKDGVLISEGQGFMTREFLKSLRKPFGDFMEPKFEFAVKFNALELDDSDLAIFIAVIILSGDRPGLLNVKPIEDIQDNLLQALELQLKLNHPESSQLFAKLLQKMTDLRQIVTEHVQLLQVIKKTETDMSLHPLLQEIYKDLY
Experimental: as §1, §2

Thyroid Receptor β = target: T4, Thyroid Receptor β (Homo sapiens, UniProt P10828); test: Thyroid Receptor β reporter counterscreen (Indigo Biosciences kit); conditions: receptor agonist at ~EC80 for antagonist potency
T4 construct: host or cells: engineered reporter cells of the kit
T4 sequence (P10828 1-461): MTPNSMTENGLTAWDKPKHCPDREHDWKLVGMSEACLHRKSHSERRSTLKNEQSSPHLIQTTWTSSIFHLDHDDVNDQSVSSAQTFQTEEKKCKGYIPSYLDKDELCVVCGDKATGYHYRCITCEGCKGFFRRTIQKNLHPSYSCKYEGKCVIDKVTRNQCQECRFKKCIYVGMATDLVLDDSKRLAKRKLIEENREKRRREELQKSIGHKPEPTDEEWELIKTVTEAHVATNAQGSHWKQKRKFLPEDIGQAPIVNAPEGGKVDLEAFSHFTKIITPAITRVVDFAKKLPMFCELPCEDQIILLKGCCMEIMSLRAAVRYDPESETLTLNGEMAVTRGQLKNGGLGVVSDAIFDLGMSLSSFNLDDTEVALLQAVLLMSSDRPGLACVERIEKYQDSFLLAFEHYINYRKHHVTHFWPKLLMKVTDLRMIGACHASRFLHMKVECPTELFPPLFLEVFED
Experimental: as §1, §2

Glucocorticoid Receptor = target: T5, Glucocorticoid Receptor (Homo sapiens, UniProt P04150); test: Glucocorticoid Receptor reporter counterscreen (Indigo Biosciences kit); conditions: receptor agonist at ~EC80 for antagonist potency
T5 construct: host or cells: engineered reporter cells of the kit
T5 sequence (P04150 1-777): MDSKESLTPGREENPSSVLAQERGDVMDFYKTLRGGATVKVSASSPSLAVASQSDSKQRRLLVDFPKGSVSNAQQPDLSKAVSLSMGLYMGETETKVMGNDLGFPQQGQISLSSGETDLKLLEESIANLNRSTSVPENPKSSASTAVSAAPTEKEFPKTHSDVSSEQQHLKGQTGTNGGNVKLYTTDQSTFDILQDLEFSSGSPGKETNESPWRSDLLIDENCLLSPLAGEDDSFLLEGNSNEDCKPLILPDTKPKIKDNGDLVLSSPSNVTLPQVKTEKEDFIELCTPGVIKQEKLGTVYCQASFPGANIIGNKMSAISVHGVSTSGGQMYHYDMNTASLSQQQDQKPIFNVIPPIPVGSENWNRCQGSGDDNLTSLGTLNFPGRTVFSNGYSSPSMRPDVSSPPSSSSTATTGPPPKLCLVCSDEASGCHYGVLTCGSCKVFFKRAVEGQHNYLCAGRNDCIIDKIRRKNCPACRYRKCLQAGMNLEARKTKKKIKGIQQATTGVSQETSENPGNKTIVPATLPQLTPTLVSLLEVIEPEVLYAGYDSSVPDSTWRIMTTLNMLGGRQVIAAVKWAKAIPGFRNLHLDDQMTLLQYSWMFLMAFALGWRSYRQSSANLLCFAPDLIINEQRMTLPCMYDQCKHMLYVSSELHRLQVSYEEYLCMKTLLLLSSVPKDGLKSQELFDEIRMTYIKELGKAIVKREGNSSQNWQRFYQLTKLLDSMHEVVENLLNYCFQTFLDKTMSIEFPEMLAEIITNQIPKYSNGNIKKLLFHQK
Experimental: as §1, §2

Estrogen Receptor β = target: T6, Estrogen Receptor β (Homo sapiens, UniProt Q92731); test: Estrogen Receptor β reporter counterscreen (Indigo Biosciences kit); conditions: receptor agonist at ~EC80 for antagonist potency
T6 construct: host or cells: engineered reporter cells of the kit
Experimental: as §1, §2

T6 sequence (Q92731 whole entry): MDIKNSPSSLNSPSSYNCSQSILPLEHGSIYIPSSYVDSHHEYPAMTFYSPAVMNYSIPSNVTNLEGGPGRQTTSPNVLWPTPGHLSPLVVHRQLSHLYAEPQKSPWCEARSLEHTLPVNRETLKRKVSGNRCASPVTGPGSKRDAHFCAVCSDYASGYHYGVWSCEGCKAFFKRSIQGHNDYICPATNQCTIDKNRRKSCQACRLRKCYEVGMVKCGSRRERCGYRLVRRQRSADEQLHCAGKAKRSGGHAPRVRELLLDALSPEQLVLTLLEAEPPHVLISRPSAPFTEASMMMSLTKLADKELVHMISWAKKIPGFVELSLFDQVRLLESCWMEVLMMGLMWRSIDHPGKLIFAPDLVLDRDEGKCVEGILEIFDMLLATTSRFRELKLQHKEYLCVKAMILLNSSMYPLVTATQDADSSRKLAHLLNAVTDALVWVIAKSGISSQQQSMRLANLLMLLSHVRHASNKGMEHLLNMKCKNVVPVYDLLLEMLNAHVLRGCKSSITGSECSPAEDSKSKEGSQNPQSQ

IC50 (human PPARα; Target Selectivity - Counterscreen table, read-out: PPAR alpha IC50): 0.0024 µM | IC50 (human PPARα; antagonism, luciferase reporter cells, overnight incubation, read-out: PPARα IC50): 0.0024 µM | IC50 (PPAR beta/delta): 22 µM | IC50 (PPAR gamma): 56 µM | IC50 (Thyroid Receptor β): 61 µM | IC50 (Glucocorticoid Receptor): 36 µM | IC50 (Estrogen Receptor β): 36 µM
Compound: CC1(C)C(=O)N(c2ccc(C(F)(F)F)cc2)N=C1CCCc1ccc(OC2(C(=O)O)CCC2)cc1 [Example 50, 1-(4-(3-(4,4-dimethyl-5-oxo-1-(4-(trifluoromethyl)phenyl)-4,5-dihydro-1H-pyrazol-3-yl)propyl)phenoxy)cyclobutanecarboxylic acid]
